For assay [1], the target named is T1, purified HLA DRB1*0404 (Homo sapiens, UniProt P01903+P01911, A100R/A169T/F76Y/I96L/K127E/L162R/M171V/N62H/P40V/Q125Y/R42H/S133A/S149N/S66Y/V209L/W38E).
T1 construct: purified from EBV transformed homozygous cell lines or single MHC allele transfected 721.221, C1R, or fibroblast lines; made in house
Kind of assay: HLA-DR radioligand binding inhibition assay, DRB1*0404. The following applies: IC50 nM purified HLA DRB1 *0404, purified HLA DRB1*0404. The essentials:
(§1)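 The probe, 1-10 nM radiolabeled peptide, was incubated with 1 μM to 1 nM HLA-DR for 2 days in the presence of protease inhibitors.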

The target of assay [2] is T2, purified HLA DRB1*1201 (Homo sapiens, UniProt P01903+P01911, A100R/A169T/D57E/D86V/F55L/H45Y/K41T/L162R/M171V/P40S/Q125H/Q178H/Q39Y/Q99D/R42G/S66L/T262R/V114A/V67L/W38E/Y59H/Y61H/Y89S).
T2 construct: purified from EBV transformed homozygous cell lines or single MHC allele transfected 721.221, C1R, or fibroblast lines; made in house
Kind of assay: HLA-DR radioligand binding inhibition assay, DRB1*1201. As for the experimental part:
(§2) Instead, wells of an opaque white 96-well Optiplate (Packard) are coated with 3 μg (100 μl@ 30 μg/ml) of HLA-specific antibody (Ab) that “capture” complexes of radiolabeled MHC and unlabeled peptide transferred from the molecular binding assay plate in 100 μl of 0.05% NP40/PBS. After a 3-hour incubation period, the supernatant is decanted and scintillation fluid (Microscint 20) added. Captured complexes are then measured on a microplate scintillation and luminescence counter (TopCount NXTTM; Packard).
(§3) HLA-DR purification. Fifteen distinct HLA-DR molecules were used in quantitative assays to measure the binding of peptides to solubilized HLA-DR molecules. […] Briefly, columns of inactivated Sepharose CL4B and Protein A Sepharose were used as pre-columns. HLA-DR molecules were captured by passage of lysates over LB3.1 monoclonal antibody (anti-HLA-DRA) columns. Antibody columns were washed with 10 mM Tris-HCL, pH8.0 with 1% (v/v) NP-40, followed by PBS containing 0.4% (w/v) n-octylglucoside. […] The pH was reduced to 8.0 and the eluates were concentrated by centrifugation in Centriprep 30 concentrators at 2000 rpm (Amicon, Beverly, Mass.).
(§4) Briefly, 1-10 nM of radiolabeled peptide was co-incubated for 2 days at either room temperature or 37° C. with 1 μM to 1 nM purified HLA-DR molecules in the presence of a cocktail of protease inhibitors. Assays were performed at various pH conditions, ranging from pH 4 to pH 7. […] After incubation, the percentage of HLA-DR-bound radioactivity is determined by capturing HLA-DR/peptide complexes on Optiplates (Packard Instruments, Meriden, Conn.) coated with the LB3.1 antibody and determining bound counts per minute using the TopCount microscintillation counter (Packard Instruments). […] Competitor peptides are tested in 2-4 complete, independent experiments, at concentrations ranging from […].

Assay [3] deals with T3, purified HLA DRB1*1101 (Homo sapiens, UniProt P01903+P01911, A100R/A169T/A87E/I96F/K41T/L162R/M171V/P40S/Q125H/Q178H/Q39Y/Q99D/R42S/S66Y/T262R/V115G/W38E).
T3 construct: purified from EBV transformed homozygous cell lines or single MHC allele transfected 721.221, C1R, or fibroblast lines; made in house
Kind of assay: HLA-DR radioligand binding inhibition assay, DRB1*1101. Particulars: IC50 nM purified HLA DRB1 *1101, purified HLA DRB1*1101. In a few lines: as §1

Assay [4] concerns the target T4, purified HLA DRB1*0301 (Homo sapiens, UniProt P01903+P01911, A100K/A102G/A103R/A169T/F55Y/I96L/K41T/L162R/M171V/P40S/Q125H/Q178H/Q39Y/R42S/S66N/T106N/T262R/W38E/Y61H).
T4 construct: purified from EBV transformed homozygous cell lines or single MHC allele transfected 721.221, C1R, or fibroblast lines; made in house
Kind of assay: HLA-DR radioligand binding inhibition assay, DRB1*0301. Particulars: IC50 nM purified HLA DRB1 *0301, purified HLA DRB1*0301. How it is done: as §2
HLA-DR purification. Fifteen distinct HLA-DR molecules were used in quantitative assays to measure the binding of peptides to solubilized HLA-DR molecules. […] Briefly, columns of inactivated Sepharose CL4B and Protein A Sepharose were used as pre-columns. HLA-DR molecules were captured by passage of lysates over LB3.1 monoclonal antibody (anti-HLA-DRA) columns. Antibody columns were washed with 10 mM Tris-HCL, pH8.0 with 1% (v/v) NP-40, followed by PBS containing 0.4% (w/v) n-octylglucoside.
Briefly, 1-10 nM of radiolabeled peptide was co-incubated for 2 days at either room temperature or 37° C. with 1 μM to 1 nM purified HLA-DR molecules in the presence of a cocktail of protease inhibitors. Assays were performed at various pH conditions, ranging from pH 4 to pH 7. […] After incubation, the percentage of HLA-DR-bound radioactivity is determined by capturing HLA-DR/peptide complexes on Optiplates (Packard Instruments, Meriden, Conn.) coated with the LB3.1 antibody and determining bound counts per minute using the TopCount microscintillation counter (Packard Instruments).

In assay [5] the target is T5, purified HLA DRB1*0802 (Homo sapiens, UniProt P01903+P01911, A100R/A103L/A169T/F76Y/H45Y/I96F/K41T/L162R/M171V/P40S/Q125H/Q178H/Q39Y/Q99D/R218S/R42G/S66Y/V115G/W38E).
T5 construct: purified from EBV transformed homozygous cell lines or single MHC allele transfected 721.221, C1R, or fibroblast lines; made in house
As to the kind of experiment: HLA-DR radioligand binding inhibition assay, DRB1*0802. Particulars: IC50 nM purified HLA DRB1 *0802, purified HLA DRB1*0802. As for the experimental part:
as §2, §3, §4

Assay [6] addresses T6, purified HLA DRB3*0101 (Homo sapiens, UniProt P01903+P79483).
T6 construct: purified from EBV transformed homozygous cell lines or single MHC allele transfected 721.221, C1R, or fibroblast lines; made in house
Kind of assay: HLA-DR radioligand binding inhibition assay, DRB3*0101. The following applies: IC50 nM purified HLA DRB3 *0101, purified HLA DRB3*0101. As for the experimental part:
as §2, §3, §4

The subject of assay [7] is peptide-specific T cells in PBMC. Kind of assay: 10-day interferon-gamma ELIspot with PBMC of breast or ovarian cancer patients and healthy controls. Particulars: fraction of breast or ovarian cancer patients with mean T cell values above cutoff (mean + 2 SD of healthy donors). It is filed as cell-based, human. The source says:
Each panel represents a unique peptide and each data point is derived from one individual. The grey box (i.e. cutoff) delineates the region that constitutes the mean and two standard deviations calculated from the normal healthy individuals. The percentages represent the fraction of patients that had mean T cell values above the cutoff. The peptides that are circled are those in which a higher fraction of the patients responded compared to the normal healthy controls. These peptides are considered to be the best vaccine candidates. However, it is clear that the rigidness of this approach could potentially result in many false negatives. […] Despite this, we identified 5 candidates to move forward. The fidelity of this approach is evident from a prior study which has already shown that a HER-2/neu peptide, p884-899, which encompasses the binding motif of p885, is an HLA-DR4 epitope.
Enzyme-linked immunosorbent spot assay. A 10-day ELlspot for detecting low-frequency T cells was used to determine reactivity to the tumor antigen peptides (Table 1) as described (Knutson K L et al. J Clin Onc 2006;24: 4254-61). […] PMA/Ionomycin and the CEF pool were used as positive non-tumor related controls as previously described (Knutson, 2006).
Using predictive algorithms discussed above, candidate HLA-DR1-binding epitopes were identified. […] An interferon-gamma ELIspot assay was used to assess immunity to the indiscriminate binding peptides in 48 patients with either breast or ovarian cancer and 18 healthy controls.
Using an ELlspot assay with a limit of detection of approximately […], patient-derived PBMC were screened for reactivity against all of the HLA-DR binding peptides.

For assay [8], the system named is 15 different HLA-DR molecules. As to the kind of experiment: HLA-DR binding assays, panel of 15 different HLA-DR molecules (breadth of binding). The following applies: number of the 15 HLA-DR molecules bound (binders: 1000 nM or better).
Assay [9] has as its target T7, purified HLA DRB1*0401 (Homo sapiens, UniProt P01903+P01911, A100K/A169T/F76Y/I96L/K127E/L162R/M171V/N62H/P40V/Q125Y/R42H/S133A/S149N/S66Y/V115G/V209L/W38E).
T7 construct: purified from EBV transformed homozygous cell lines or single MHC allele transfected 721.221, C1R, or fibroblast lines; made in house
As to the kind of experiment: HLA-DR radioligand binding inhibition assay, DRB1*0401. The following applies: IC50 nM purified HLA DRB1 *0401, purified HLA DRB1*0401. In a few lines:
as §1

Experimental findings from patent publication US20140377340A1, “HLA-DR BINDING PEPTIDES AND THEIR USES” (priority 2007, published 2014) are described below.

T3 sequence (P01903 26-254, other chains not shown): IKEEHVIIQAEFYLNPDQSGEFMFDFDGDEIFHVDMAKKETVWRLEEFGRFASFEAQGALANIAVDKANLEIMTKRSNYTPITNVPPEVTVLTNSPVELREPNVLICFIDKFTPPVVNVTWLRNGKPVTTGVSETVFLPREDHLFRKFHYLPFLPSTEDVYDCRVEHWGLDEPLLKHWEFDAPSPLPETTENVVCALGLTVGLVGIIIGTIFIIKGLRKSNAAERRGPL

With `CC[C@H](C)[C@H](NC(=O)[C@H](CO)NC(=O)[C@@H]1CCCN1C(=O)[C@H](CCCCN)NC(=O)[C@@H]1CCCN1C(=O)[C@H](CC(C)C)NC(=O)[C@H](CCC(=O)O)NC(=O)[C@H](C)NC(=O)[C@H](CO)NC(=O)[C@@H](NC(=O)[C@@H](NC(=O)[C@@H](NC(=O)[C@@H](N)[C@@H](C)O)[C@@H](C)CC)[C@@H](C)O)C(C)C)C(=O)N[C@@H](CO)C(=O)N[C@@H](CO)C(=O)O` [Peptide 9019.0132], the IC50 in assay [1] was 7000 nM; in assay [2] it was above 20000 nM; in assay [3] it was above 20000 nM; in assay [4] it was 74 nM; in [5], above 20000 nM; in assay [6], above 20000 nM.

Turning to `CC(C)C[C@H](NC(=O)[C@H](CC(N)=O)NC(=O)[C@H](CO)NC(=O)[C@@H](NC(=O)[C@H](Cc1ccccc1)NC(=O)[C@H](CS)NC(=O)[C@H](C)NC(=O)[C@@H](N)Cc1ccc(O)cc1)C(C)C)C(=O)N[C@@H](C)C(=O)N[C@H](C(=O)NCC(=O)N[C@@H](CCCNC(=N)N)C(=O)N[C@@H](CC(N)=O)C(=O)N[C@@H](CC(N)=O)C(=O)N[C@@H](CO)C(=O)O)[C@@H](C)O` [Peptide 9019.0141], the “Percent of patients with responses” value in assay [7] is 25%. Moreover, the “Total XRN” value in [8] is 9.

For `CSCC[C@H](NC(=O)[C@H](C)NC(=O)[C@@H](N)CCCNC(=N)N)C(=O)N[C@@H](CC(C)C)C(=O)N[C@@H](CCCCN)C(=O)N[C@@H](C)C(=O)N[C@@H](CCC(=O)O)C(=O)N[C@@H](CCC(=O)O)C(=O)N[C@H](C(=O)N[C@@H](CS)C(=O)N[C@@H](C)C(=O)N1CCC[C@H]1C(=O)N[C@@H](CO)C(=O)N[C@H](C(=O)N[C@@H](CO)C(=O)O)C(C)C)[C@@H](C)O` [Peptide 9019.0148], the IC50 is 360 nM in [9]; above 20000 nM in assay [2]; above 20000 nM in assay [4]; above 20000 nM in assay [5]; above 20000 nM in assay [6].

The term IC50 denotes the concentration needed to halve the response being measured. Low readings indicate greater potency, high ones weaker potency.
